The target of data set [1] is T1, 5-HT2C receptor (Homo sapiens, UniProt P28335).
T1 construct: host or cells: U2OS
Nature of the data set: Human 5-HT2C functional assay (beta-arrestin2 recruitment, U2OS_HTR2C_β-Arrestin cells). The class given is cell-based. As to conditions: for EC50: Potency (EC50 5-HT2C) in functional assay, agonism, read-out: EC50 5-HT2C; for Emax: relative efficacy vs maximal effect induced by 5-HT (defined as 100%). The method, boiled down: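 U2OS cells expressing human 5-HT2C with β-arrestin2 enzyme-fragment complementation; switched to 1% serum medium 24 h after plating, compounds added next day for 1.5 h. β-Galactosidase activity read by chemiluminescence; response expressed as percent of 10 μM 5-HT or maximal 5-HT effect (relative efficacy).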
(Activated receptors often draw arrestin, which recruitment assays turn into a signal.)

In data set [2] the target is T2, human 5-HT2B receptor (Homo sapiens, UniProt P41595).
T2 construct: expressed in transfected cells; host or cells: CHO-FlpIn
T2 sequence (P41595 whole entry): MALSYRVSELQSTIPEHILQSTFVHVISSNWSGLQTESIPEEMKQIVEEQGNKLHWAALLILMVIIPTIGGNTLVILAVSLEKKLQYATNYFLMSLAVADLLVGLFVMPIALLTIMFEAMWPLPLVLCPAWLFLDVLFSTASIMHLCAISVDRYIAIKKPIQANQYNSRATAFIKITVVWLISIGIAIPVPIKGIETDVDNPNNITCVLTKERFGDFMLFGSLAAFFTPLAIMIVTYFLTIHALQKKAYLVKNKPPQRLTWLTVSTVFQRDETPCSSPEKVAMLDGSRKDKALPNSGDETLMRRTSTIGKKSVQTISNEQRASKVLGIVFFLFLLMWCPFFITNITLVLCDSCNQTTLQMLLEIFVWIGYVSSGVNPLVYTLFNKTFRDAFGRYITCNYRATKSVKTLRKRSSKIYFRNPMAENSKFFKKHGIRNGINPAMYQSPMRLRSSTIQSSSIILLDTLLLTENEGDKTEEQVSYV
Nature of the data set: Human 5-HT2B functional assay (calcium mobilisation in CHO-FlpIn cells, FLIPR). Type of data set: cell-based. As to conditions: based on agonism: EC50 5-HT2B/EC50 5-HT2C. The method, boiled down: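 CHO-FlpIn cells stably expressing human 5-HT2B, serum-starved 4 h and Ca5 dye-loaded, received compound (10^−10 to 10^−5 M) for agonism, then 10^−8 M serotonin after 8 min for antagonism; peak calcium read by FLIPR. Efficacy as % serotonin maximum; EC50/IC50 from four-parameter fits, Kb via Cheng–Prusoff.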

Data set [3] addresses T3, human 5-HT2A receptor (Homo sapiens, UniProt P28223).
T3 construct: expressed in transfected cells; host or cells: CHO-K1
The data set is described as follows: Human 5-HT2A functional assay (calcium mobilisation in CHO-K1 cells, FLIPR). Type of data set: cell-based. The note with it: based on agonism: EC50 5-HT2A/EC50 5-HT2C. In short, it runs like this:
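CHO-K1 cells stably expressing human 5-HT2A, serum-starved overnight and loaded with calcium dye plus 0.07% probenecid, were given compound (10^−10 to 10^−5 M) for agonism, then serotonin at 3×10^−8 M after 8 min for antagonism. FLIPR calcium responses were normalised to serotonin maximum, and EC50/IC50 came from four-parameter fits, with Kb via Cheng–Prusoff.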
Background: A change in cytosolic calcium serves as a functional read-out for many receptors and channels.

The nature of data set [4]: Metabolic stability in human liver microsomes, unbound intrinsic clearance. The class given is in vitro ADME. As to conditions: liver microsomes, pH 7.4; unbound intrinsic clearance (human); Clint unbound = Cl int/fu mic; read-out: Cl int, mic unb. (h). The method, boiled down:
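Compound at 0.5 μM incubated with human liver microsomes (0.25 mg/mL) in 0.05 M potassium phosphate pH 7.4 at 37° C, started with 1.0 mM NADPH; sampled 0–30 min, parent quantified by LC-MS/MS. First-order t1/2 gives CLint (uL/min/mg), scaled to L/h/kg; unbound CLint = CLint/fu mic.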
(In general: Liver microsomes are vesicles of endoplasmic reticulum, rich in cytochrome P450 enzymes.)

Some results are limits rather than exact numbers.

T3 sequence (P28223 whole entry): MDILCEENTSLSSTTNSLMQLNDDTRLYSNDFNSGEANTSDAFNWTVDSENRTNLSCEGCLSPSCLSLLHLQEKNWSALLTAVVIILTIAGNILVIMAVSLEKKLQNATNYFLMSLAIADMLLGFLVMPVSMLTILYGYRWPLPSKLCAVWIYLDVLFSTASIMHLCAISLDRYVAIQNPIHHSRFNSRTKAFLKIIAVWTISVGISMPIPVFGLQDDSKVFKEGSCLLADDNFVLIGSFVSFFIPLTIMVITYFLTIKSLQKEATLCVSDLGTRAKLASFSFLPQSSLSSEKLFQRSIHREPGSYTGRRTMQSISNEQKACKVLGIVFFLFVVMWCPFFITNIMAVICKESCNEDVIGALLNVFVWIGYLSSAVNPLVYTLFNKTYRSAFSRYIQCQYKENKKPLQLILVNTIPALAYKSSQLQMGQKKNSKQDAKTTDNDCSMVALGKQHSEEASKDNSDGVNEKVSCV
T1 sequence (P28335 33-458): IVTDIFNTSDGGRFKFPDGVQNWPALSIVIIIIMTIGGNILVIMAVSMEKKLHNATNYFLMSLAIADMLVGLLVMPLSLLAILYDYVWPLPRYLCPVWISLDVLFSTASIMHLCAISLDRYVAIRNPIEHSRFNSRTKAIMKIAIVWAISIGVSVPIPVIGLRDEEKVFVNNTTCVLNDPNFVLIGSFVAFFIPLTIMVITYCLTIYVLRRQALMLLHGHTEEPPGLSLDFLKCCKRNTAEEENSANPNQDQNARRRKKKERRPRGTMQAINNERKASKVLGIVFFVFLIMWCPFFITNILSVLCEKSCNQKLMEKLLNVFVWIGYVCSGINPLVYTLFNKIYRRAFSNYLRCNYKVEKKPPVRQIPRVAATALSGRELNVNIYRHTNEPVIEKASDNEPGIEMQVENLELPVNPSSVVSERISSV
T1 sequence (P32121 whole entry partner): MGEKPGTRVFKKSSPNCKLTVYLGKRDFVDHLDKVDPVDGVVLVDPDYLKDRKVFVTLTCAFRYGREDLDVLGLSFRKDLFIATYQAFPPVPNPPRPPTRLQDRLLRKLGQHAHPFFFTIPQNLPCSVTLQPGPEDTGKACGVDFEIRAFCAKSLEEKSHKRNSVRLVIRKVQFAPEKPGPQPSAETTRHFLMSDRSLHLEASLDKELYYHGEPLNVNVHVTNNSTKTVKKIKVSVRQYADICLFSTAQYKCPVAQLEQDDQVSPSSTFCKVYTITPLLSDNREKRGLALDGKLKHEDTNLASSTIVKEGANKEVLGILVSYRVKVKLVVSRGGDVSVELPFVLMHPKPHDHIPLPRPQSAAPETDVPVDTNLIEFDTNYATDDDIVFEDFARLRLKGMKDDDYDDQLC

As a reminder, the EC50 is the concentration needed to bring the measured effect to its halfway point. Usually Emax stands for the greatest response seen or fitted, relative to the assay's reference. `COC[C@@H]1C[C@@H]2CNCCN2c2ccc(F)cc2O1.Cl` [Example 51, (4aR,6S)-9-Fluoro-6-(methoxymethyl)-2,3,4,4a,5,6-hexahydro-1H-pyrazino[2,1-d][1,5]benzoxazepine hydrochloride]: in data set [1], the concentration for a half-maximal effect (EC50) fell in the range of 200 to 1000 nM and the maximum response (Emax) fell in the range of 50 to 70%. In data set [2], the “Selectivity over 5-HT2B” value is recorded as “++ (from >30 to 100)”. The “Selectivity over 5-HT2A” value in data set [3] was “+ (from 10 to 30)”. In data set [4], the CLint scaled at 0.5 μM was below 83.3 mL/min/kg.
On the same counts, the results for `COC[C@@H]1C[C@@H]2CNCCN2c2cc(F)cc(Cl)c2O1.Cl` [Example 7, (4aR,6S)-8-Chloro-10-fluoro-6-(methoxymethyl)-2,3,4,4a,5,6-hexahydro-1H-pyrazino[2,1-d][1,5]benzoxazepine hydrochloride] are below 20 nM, above 70%, “+++ (>100)”, “+++ (>100)” and below 83.3 mL/min/kg.
In the same order, the values of `COC[C@@H]1C[C@@H]2CNCCN2c2c(F)c(F)cc(Cl)c2O1.Cl` [Example 16, (4aR,6S)-8-Chloro-10,11-difluoro-6-(methoxymethyl)-2,3,4,4a,5,6-hexahydro-1H-pyrazino[2,1-d][1,5]benzoxazepine hydrochloride] are below 20 nM, above 70%, “+++ (>100)”, “+++ (>100)” and below 83.3 mL/min/kg.
In the same order, the values of `COC[C@@H]1C[C@@H]2CNCCN2c2cc(Cl)cc(Cl)c2O1` [Example 52, (4aR,6S)-8,10-Dichloro-6-(methoxymethyl)-2,3,4,4a,5,6-hexahydro-1H-pyrazino[2,1-d][1,5]benzoxazepine] are 20 to 200 nM, above 70%, “++ (from >30 to 100)”, “+++ (>100)” and below 83.3 mL/min/kg.
Turning to `COC[C@@H]1C[C@@H]2CNCCN2c2c(ccc(F)c2F)O1.Cl` [Example 21, (4aR,6S)-10,11-Difluoro-6-(methoxymethyl)-2,3,4,4a,5,6-hexahydro-1H-pyrazino[2,1-d][1,5]benzoxazepine hydrochloride], in data set [1], the EC50 lay within 20 to 200 nM and the Emax fell in the range of 30 to 50%. Moreover, the “Selectivity over 5-HT2B” value in data set [2] is recorded as “++ (from >30 to 100)”. Moreover, the “Selectivity over 5-HT2A” value in data set [3] is on record as “++ (from >30 to 100)”. Also, in data set [4], the CLint scaled at 0.5 μM was below 83.3 mL/min/kg.
In the case of `COC[C@@H]1C[C@@H]2CNCCN2c2cc(C)cc(F)c2O1` [Example 33, (4aR,6S)-8-Fluoro-6-(methoxymethyl)-10-methyl-2,3,4,4a,5,6-hexahydro-1H-pyrazino[2,1-d][1,5]benzoxazepine], in data set [1], the EC50 was 200 to 1000 nM and the Emax fell in the range of 50 to 70%. In addition, in data set [2], the “Selectivity over 5-HT2B” value is reported as “+ (from 10 to 30)”. For the same compound, the “Selectivity over 5-HT2A” value in data set [3] is “+ (from 10 to 30)”. The CLint scaled at 0.5 μM in data set [4] was below 83.3 mL/min/kg.
With `COC[C@@H]1C[C@@H]2CNCCN2c2c(cc(F)c(F)c2F)O1.Cl` [Example 47, (4aR,6S)-9,10,11-Trifluoro-6-(methoxymethyl)-2,3,4,4a,5,6-hexahydro-1H-pyrazino[2,1-d][1,5]benzoxazepine hydrochloride], in data set [1], the concentration for a half-maximal effect (EC50) was in the range of 20 to 200 nM and the maximum response (Emax) is above 70%. In addition, the “Selectivity over 5-HT2B” value in data set [2] is on record as “+++ (>100)”. Moreover, the “Selectivity over 5-HT2A” value in data set [3] is “+++ (>100)”. Besides, the CLint scaled at 0.5 μM in data set [4] was below 83.3 mL/min/kg.
`Cl.Fc1cc(Cl)c2c(c1)N1CCNC[C@H]1C[C@@H](COC(F)F)O2` [Example 24, (4aR,6S)-8-Chloro-6-(difluoromethoxymethyl)-10-fluoro-2,3,4,4a,5,6-hexahydro-1H-pyrazino[2,1-d][1,5]benzoxazepine hydrochloride]: in data set [1], the EC50 lay in the range of 20 to 200 nM and the Emax is 50 to 70%. Besides, the “Selectivity over 5-HT2B” value in data set [2] is “++ (from >30 to 100)”. Moreover, the “Selectivity over 5-HT2A” value in data set [3] is “+++ (>100)”. Besides, the CLint scaled at 0.5 μM in data set [4] was 83.3 to 833 mL/min/kg.
In the case of `COC[C@@H]1C[C@@H]2CNCCN2c2c(F)c(OC)cc(C(F)F)c2O1.Cl` [Example 29, (4aR,6S)-8-(Difluoromethyl)-11-fluoro-10-methoxy-6-(methoxymethyl)-2,3,4,4a,5,6-hexahydro-1H-pyrazino[2,1-d][1,5]benzoxazepine hydrochloride], in data set [1], the 50% effective concentration (EC50) was 20 to 200 nM and the maximum response (Emax) is above 70%. The “Selectivity over 5-HT2B” value in data set [2] was “+++ (>100)”. The “Selectivity over 5-HT2A” value in data set [3] is recorded as “+++ (>100)”. For the same compound, the CLint scaled at 0.5 μM in data set [4] fell in the range of 83.3 to 833 mL/min/kg.
Consider `COC[C@H]1C[C@@H]2CNCCN2c2cc(F)cc(Cl)c2O1.Cl` [Example 35, (4aR,6R)-8-Chloro-10-fluoro-6-(methoxymethyl)-2,3,4,4a,5,6-hexahydro-1H-pyrazino[2,1-d][1,5]benzoxazepine hydrochloride], for which, in data set [1], the concentration giving a half-maximal response (EC50) was in the range of 20 to 200 nM and the Emax was above 70%. In addition, the “Selectivity over 5-HT2B” value in data set [2] is listed as “+ (from 10 to 30)”. In addition, the “Selectivity over 5-HT2A” value in data set [3] is listed as “++ (from >30 to 100)”. For the same compound, the CLint scaled at 0.5 μM in data set [4] was below 83.3 mL/min/kg.
As for `COC[C@@H]1C[C@@H]2CNCCN2c2c(F)c(F)cc(C(F)F)c2O1.Cl` [Example 26, (4aR,6S)-8-(Difluoromethyl)-10,11-difluoro-6-(methoxymethyl)-2,3,4,4a,5,6-hexahydro-1H-pyrazino[2,1-d][1,5]benzoxazepine hydrochloride], in data set [1], the EC50 was below 20 nM and the maximum response (Emax) was above 70%. The “Selectivity over 5-HT2B” value in data set [2] was “+++ (>100)”. Also, the “Selectivity over 5-HT2A” value in data set [3] was “+++ (>100)”. For the same compound, in data set [4], the CLint scaled at 0.5 μM is below 83.3 mL/min/kg.
Consider `COC[C@@H]1C[C@@H]2CNCCN2c2c(F)c(F)cc(C#N)c2O1.Cl` [Example 28, (4aR,6S)-10,11-Difluoro-6-(methoxymethyl)-2,3,4,4a,5,6-hexahydro-1H-pyrazino[2,1-d][1,5]benzoxazepine-8-carbonitrile hydrochloride], for which, in data set [1], the EC50 lay in the range of 20 to 200 nM and the Emax was above 70%. The “Selectivity over 5-HT2B” value in data set [2] is “+ (from 10 to 30)”. For the same compound, the “Selectivity over 5-HT2A” value in data set [3] is listed as “++ (from >30 to 100)”. Further, the CLint scaled at 0.5 μM in data set [4] was below 83.3 mL/min/kg.
Take `COC[C@@H]1C[C@@H]2CNCCN2c2cc(Cl)ccc2O1.Cl` [Example 10, (4aR,6S)-10-Chloro-6-(methoxymethyl)-2,3,4,4a,5,6-hexahydro-1H-pyrazino[2,1-d][1,5]benzoxazepine hydrochloride]: the EC50 in data set [1] lay within 20 to 200 nM. Also, the “Selectivity over 5-HT2B” value in data set [2] was “++ (from >30 to 100)”. In addition, the “Selectivity over 5-HT2A” value in data set [3] is recorded as “++ (from >30 to 100)”. Besides, in data set [4], the CLint scaled at 0.5 μM fell in the range of 83.3 to 833 mL/min/kg.
Turning to `C#Cc1cc(F)c2c(c1)N1CCNC[C@H]1C[C@@H](COC)O2.O=C(O)C(O)C(O)C(=O)O` [Example 36, (4aR,6S)-10-Ethynyl-8-fluoro-6-(methoxymethyl)-2,3,4,4a,5,6-hexahydro-1H-pyrazino[2,1-d][1,5]benzoxazepine; (2R,3R)-2,3-dihydroxybutanedioic acid], in data set [1], the 50% effective concentration (EC50) lay in the range of 200 to 1000 nM and the maximal response (Emax) was 50 to 70%. Also, in data set [2], the “Selectivity over 5-HT2B” value is recorded as “+ (from 10 to 30)”. In data set [3], the “Selectivity over 5-HT2A” value is “+ (from 10 to 30)”. In addition, in data set [4], the CLint scaled at 0.5 μM fell in the range of 83.3 to 833 mL/min/kg.

The values are drawn from patent publication US20200002354A1, “HEXAHYDROPYRAZINOBENZ- OR -PYRIDO-OXAZEPINES CARRYING AN OXYGEN-CONTAINING SUBSTITUENT AND USE THEREOF IN THE TREATMENT OF 5-HT2C-DEPENDENT DISORDERS” (AbbVie Deutschland GmbH & Co. KG, priority 2015, published 2020).
